Test [1] concerns the target T1, Estrogen receptor (Homo sapiens) (UniProt P03372).
T1 sequence (whole entry): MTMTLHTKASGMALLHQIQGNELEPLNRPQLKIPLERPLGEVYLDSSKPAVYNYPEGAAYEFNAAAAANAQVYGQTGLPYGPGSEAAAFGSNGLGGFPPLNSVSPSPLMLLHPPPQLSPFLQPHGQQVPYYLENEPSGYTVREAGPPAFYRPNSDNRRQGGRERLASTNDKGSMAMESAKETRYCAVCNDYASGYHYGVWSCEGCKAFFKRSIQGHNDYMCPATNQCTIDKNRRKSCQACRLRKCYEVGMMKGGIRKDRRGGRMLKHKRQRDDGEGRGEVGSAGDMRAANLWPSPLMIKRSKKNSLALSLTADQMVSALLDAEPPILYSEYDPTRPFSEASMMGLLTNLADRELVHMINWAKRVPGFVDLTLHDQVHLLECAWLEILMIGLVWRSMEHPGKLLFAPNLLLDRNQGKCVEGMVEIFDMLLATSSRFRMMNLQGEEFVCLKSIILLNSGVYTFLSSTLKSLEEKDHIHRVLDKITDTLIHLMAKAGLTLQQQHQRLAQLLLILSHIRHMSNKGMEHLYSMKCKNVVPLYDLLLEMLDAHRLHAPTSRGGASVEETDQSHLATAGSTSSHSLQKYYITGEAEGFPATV
The test is described as follows: Displacement of [3H]-estradiol from human full-length ERalpha receptor by competitive radiometric binding assay relative to estradiol. A general note: In a radioligand displacement assay an active substance lowers the binding of a labelled ligand.

The target of test [2] is T2, Estrogen receptor beta (Homo sapiens, UniProt Q92731). The test is described as follows: Displacement of [3H]-estradiol from human full-length ERbeta receptor by competitive radiometric binding assay relative to estradiol.
In test [3] the target is T1, Estrogen receptor (Homo sapiens). The experiment in a line: Agonist activity at human full-length ERalpha receptor expressed in human HEC1 cells co-expressing (ERE)2-pS2-luc gene assessed as transcriptional activation after 24 hrs by luciferase reporter gene assay relative to estradiol. It is filed as functional, cell-based. Particulars: HEC-1. In general terms: In a reporter assay the amount or activity of a reporter protein is the signal.

Test [4] concerns the target T2, Estrogen receptor beta. The experiment in a line: Agonist activity at human full-length ERbeta receptor expressed in human HEC1 cells co-expressing (ERE)2-pS2-luc gene assessed as transcriptional activation after 24 hrs by luciferase reporter gene assay relative to estradiol. In kind it is functional, cell-based. The note with it: HEC-1.
The target of another test is T3, Estrogen receptor (Homo sapiens, UniProt P03372).
T3 sequence (P03372 whole entry): T1 sequence (whole entry)

The target of test [5] is T2, Estrogen receptor beta.
For test [6], the target named is T2, Estrogen receptor beta. The source holds these as a separate data set.

T2 sequence (Q92731 whole entry): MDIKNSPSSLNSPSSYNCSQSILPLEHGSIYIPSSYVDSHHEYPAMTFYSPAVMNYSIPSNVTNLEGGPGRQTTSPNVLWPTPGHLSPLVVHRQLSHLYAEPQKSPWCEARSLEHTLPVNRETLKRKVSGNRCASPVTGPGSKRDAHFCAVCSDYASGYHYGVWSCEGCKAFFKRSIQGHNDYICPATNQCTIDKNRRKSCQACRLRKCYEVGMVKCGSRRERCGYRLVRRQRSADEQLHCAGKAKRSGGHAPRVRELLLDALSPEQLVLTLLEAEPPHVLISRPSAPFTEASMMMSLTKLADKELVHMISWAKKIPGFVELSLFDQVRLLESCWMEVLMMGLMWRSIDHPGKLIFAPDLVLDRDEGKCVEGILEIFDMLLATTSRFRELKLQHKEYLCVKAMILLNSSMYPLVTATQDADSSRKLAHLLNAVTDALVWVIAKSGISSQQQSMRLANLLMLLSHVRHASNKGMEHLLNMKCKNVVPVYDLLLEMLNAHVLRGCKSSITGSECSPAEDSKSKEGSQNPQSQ

On to `O/N=C/c1c(O)ccc(-c2ccc(O)cc2)c1-c1ccc(O)cc1`, for which the RBA is 88.4% in test [1] and 101% on Estrogen receptor beta [2]. Besides, the Emax (in general, the greatest response seen or fitted, relative to the assay's reference) in test [3] was 90%; at Estrogen receptor beta [4] it was 80%. The results for the EC50 at Estrogen receptor and at Estrogen receptor beta [5] were 0.3 nM and 0.5 nM, respectively.
On to `Cc1cc(-c2ccc(O)cc2)c(Cl)c(/C=N/O)c1O`, for which the RBA in test [1] is 0.074%; at Estrogen receptor beta [2], 0.64%.
The matching figures for `Cc1c(-c2ccc(O)cc2)cc(Cl)c(O)c1/C=N/O`: 1.47% and 15.8%.
Take `O/N=C/c1c(O)ccc(-c2ccc(O)cc2)c1Cl`: the RBA in test [1] was found to be 4.46%; on Estrogen receptor beta [2], 130%. In addition, the Emax (in test [3]; at Estrogen receptor beta [4]) was 100% in each case. In addition, on Estrogen receptor beta [6], the Ki (commonly a measure of affinity in units of concentration, obtained from inhibition or displacement) was 0.38 nM. Further, the EC50 (in general, the midpoint of the concentration-response curve) on Estrogen receptor came out at 0.58 nM; at Estrogen receptor beta [5], 0.23 nM.
For the compound `Cc1c(-c2ccc(O)c(F)c2)cc(Cl)c(O)c1/C=N/O`, the RBA in test [1] turned out to be 0.39%; on Estrogen receptor beta [2] it was 7.9%.
The matching figures for `O/N=C/c1ccc(-c2ccc(O)cc2)c(-c2ccc(O)cc2)c1O`: 0.92% and 0.35%.
As for `O/N=C/c1c(O)ccc(-c2ccc(O)c(F)c2)c1Cl`, the RBA in test [1] stood at 1.88%; on Estrogen receptor beta [2] it was 87.1%. Also, the Emax (in test [3]; at Estrogen receptor beta [4]) was 100% each time. This compound came in with a Ki on Estrogen receptor beta [6] of 0.57 nM. Besides, the figures for the EC50 on Estrogen receptor and at Estrogen receptor beta [5] were 8.4 nM and 1.3 nM, respectively.

Values taken from ChEMBL document CHEMBL1781957, “Selective and potent agonists for estrogen receptor beta derived from molecular refinements of salicylaldoximes” (Eur J Med Chem, 2011).
